These compounds were tested against T1, Adenosine receptor A3 (Homo sapiens, UniProt P0DMS8).
T1 sequence (P0DMS8 whole entry): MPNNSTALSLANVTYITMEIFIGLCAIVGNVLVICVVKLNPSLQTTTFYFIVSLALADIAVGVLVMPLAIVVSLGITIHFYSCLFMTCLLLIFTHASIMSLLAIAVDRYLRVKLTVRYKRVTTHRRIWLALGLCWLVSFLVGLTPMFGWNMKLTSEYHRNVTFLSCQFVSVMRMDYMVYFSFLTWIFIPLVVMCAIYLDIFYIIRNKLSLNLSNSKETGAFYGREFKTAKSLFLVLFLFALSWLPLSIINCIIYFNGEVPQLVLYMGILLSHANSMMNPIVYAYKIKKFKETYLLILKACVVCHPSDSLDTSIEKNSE
Description: Binding affinity for human adenosine A3 receptor

SMILES | Ki
CCCCCCCCn1cc2c(nc(NC(=O)NCCCCC)n3nc(-c4ccco4)nc23)n1 | 7.83 nM
CCCCCCCCn1cc2c(nc(N)n3nc(-c4ccco4)nc23)n1 | 2050 nM
NCCCC(=O)Nc1nc2nn(CCc3ccccc3)cc2c2nc(-c3ccco3)nn12 | 65 nM
NCC(=O)Nc1nc2nn(CCc3ccccc3)cc2c2nc(-c3ccco3)nn12 | 163 nM
CCCCCNC(=O)Nc1nc2nn(CC3CCCCC3)cc2c2nc(-c3ccco3)nn12 | 3.98 nM
CCCCCNC(=O)Nc1nc2nn(CCC(C)C)cc2c2nc(-c3ccco3)nn12 | 8.09 nM
CCCn1cc2c(nc(NC(=O)NC(C)(C)C)n3nc(-c4ccco4)nc23)n1 | 15 nM
CCCn1cc2c(nc(NC(=O)NC(C)C)n3nc(-c4ccco4)nc23)n1 | 21 nM
Cc1ccc(NC(=O)Nc2nc3nn(CC4CCCCC4)cc3c3nc(-c4ccco4)nn23)cc1 | 5.94 nM
CCOC(=O)Cc1ccc(NC(=O)Nc2nc3nn(CCC(C)C)cc3c3nc(-c4ccco4)nn23)cc1 | 11.9 nM
CC(C)CCn1cc2c(nc(NC(=O)NC(C)C)n3nc(-c4ccco4)nc23)n1 | 65 nM
CC(C)NC(=O)Nc1nc2nn(CCc3ccccc3)cc2c2nc(-c3ccco3)nn12 | 9 nM
CC(C)NC(=O)Nc1nc2nn(CCCc3ccccc3)cc2c2nc(-c3ccco3)nn12 | 55 nM
CC(C)(C)NC(=O)Nc1nc2nn(CCc3ccccc3)cc2c2nc(-c3ccco3)nn12 | 4.9 nM
NCCC(=O)Nc1nc2nn(CCc3ccccc3)cc2c2nc(-c3ccco3)nn12 | 80 nM
CCCCCCCCn1cc2c(nc(NC(=O)NC3CCCCC3)n3nc(-c4ccco4)nc23)n1 | 16.3 nM

SMILES | Ki
CC(C)(C)OC(=O)NCCCC(=O)Nc1nc2nn(CCc3ccccc3)cc2c2nc(-c3ccco3)nn12 | 1480 nM
O=C(Nc1nc2nn(CC3CCCCC3)cc2c2nc(-c3ccco3)nn12)NC1CCCCC1 | 6.7 nM
CCCCCCCCn1cc2c(nc(NC(=O)Nc3ccc(CC(=O)OCC)cc3)n3nc(-c4ccco4)nc23)n1 | 9.97 nM
CC(C)(C)NC(=O)Nc1nc2nn(CCCc3ccccc3)cc2c2nc(-c3ccco3)nn12 | 65 nM
CCCCCNC(=O)Nc1nc2nn(C)cc2c2nc(-c3ccco3)nn12 | 1.95 nM
CC(C)CCn1cc2c(nc(NC(=O)CCCNC(=O)OC(C)(C)C)n3nc(-c4ccco4)nc23)n1 | 2490 nM
CC(C)CCn1cc2c(nc(NC(=O)NC3CCCCC3)n3nc(-c4ccco4)nc23)n1 | 20.5 nM
CC(C)CCn1cc2c(nc(NC(=O)CCCN)n3nc(-c4ccco4)nc23)n1 | 90 nM
Cc1ccc(NC(=O)Nc2nc3nn(CCC(C)C)cc3c3nc(-c4ccco4)nn23)cc1 | 7.41 nM
CCOC(=O)Cc1ccc(NC(=O)Nc2nc3nn(C)cc3c3nc(-c4ccco4)nn23)cc1 | 0.82 nM
CCCCCCCCn1cc2c(nc(NC(=O)Nc3ccc(C)cc3)n3nc(-c4ccco4)nc23)n1 | 4.48 nM
Nc1nc2nn(CC3CCCCC3)cc2c2nc(-c3ccco3)nn12 | 1720 nM
CCOC(=O)Cc1ccc(NC(=O)Nc2nc3nn(CC4CCCCC4)cc3c3nc(-c4ccco4)nn23)cc1 | 6.95 nM
CC(C)CCn1cc2c(nc(NC(=O)NC(C)(C)C)n3nc(-c4ccco4)nc23)n1 | 39 nM
CC(C)=CCn1cc2c(nc(N)n3nc(-c4ccco4)nc23)n1 | 811 nM
